The record followed here is patent EP2100894A1, “Pyridopyrimidines used as Plk1 (polo-like kinase) inhibitors” (4SC AG, priority 2008, dated 2009).

For the assay, the target named is T1, PIk1 (Homo sapiens, UniProt P53350).
T1 construct: His tag (histidine tag) (N); made in house; host or cells: SF9 insect cells
T1 sequence (P53350 whole entry): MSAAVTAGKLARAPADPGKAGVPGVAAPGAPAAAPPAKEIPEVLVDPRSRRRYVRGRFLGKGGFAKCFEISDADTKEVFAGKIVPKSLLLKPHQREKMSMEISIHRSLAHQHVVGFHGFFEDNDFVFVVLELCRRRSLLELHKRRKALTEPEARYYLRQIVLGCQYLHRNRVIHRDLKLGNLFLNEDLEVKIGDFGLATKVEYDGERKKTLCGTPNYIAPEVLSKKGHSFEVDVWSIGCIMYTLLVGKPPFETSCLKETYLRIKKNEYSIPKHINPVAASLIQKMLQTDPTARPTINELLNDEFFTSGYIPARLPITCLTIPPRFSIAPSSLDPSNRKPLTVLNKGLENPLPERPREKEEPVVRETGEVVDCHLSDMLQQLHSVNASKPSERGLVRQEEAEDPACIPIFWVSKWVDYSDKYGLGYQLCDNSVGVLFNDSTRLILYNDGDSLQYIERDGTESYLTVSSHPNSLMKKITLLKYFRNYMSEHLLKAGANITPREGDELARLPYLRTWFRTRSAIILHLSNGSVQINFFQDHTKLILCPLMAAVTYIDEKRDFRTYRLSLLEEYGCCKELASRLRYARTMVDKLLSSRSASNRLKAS
The experiment in a line: PIk1 kinase activity inhibition assay (33P incorporation into alpha casein, flash plates). Type of assay: biochemical. The settings on record: recombinant N-terminally histidine-tagged PIk1, alpha casein as substrate, 100 nM Li-ATP, 80 minutes at 30°C. An outline of the steps:
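N-terminally His-tagged human Plk1 from SF9 cells (50–100 ng/well) phosphorylated alpha casein with 100 nM Li-ATP plus 33P-ATP in HEPES pH 7.5, MgCl2/MnCl2 buffer for 80 minutes at 30°C. After H3PO4 stop and washing, casein-bound 33P was counted on scintillator-coated flash plates to derive IC50.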
Regarding `COc1cc(C(=O)NC2CCN(C)CC2)ccc1Nc1ncc2c(n1)c(-c1cncnc1)c(OC)c(=O)n2C` [Example 34, 3-methoxy-4-[(7-methoxy-5-methyl-6-oxo-8-pyrimidin-5-yl-5,6-dihydro-pyrido[3,2-d]pyrimidin-2-yl)amino]-N-(1-methylpiperidin-4-yl)benzamide], the IC50 was < 1000 nM.

On to `COc1cc(C(=O)NC2CCN(C)CC2)ccc1Nc1ncc2c(n1)c(-c1ccccc1F)c(OCC1CC1)c(=O)n2C` [Example 59, 4-{[7-(cyclopropylmethoxy)-8-(2-fluorophenyl)-5-methyl-6-oxo-5,6-dihydropyrido[3,2-d]pyrimidin-2-yl]amino}-3-methoxy-N-(1-methylpiperidin-4-yl)benzamide], for which the IC50 was < 10 nM.

As for `C/C=C/c1c(OC)c(=O)n(C)c2cnc(Nc3ccc(C(=O)Nc4cccnc4)cc3OC)nc12` [Example 28, 3-methoxy-4-({7-methoxy-5-methyl-6-oxo-8-[(1E)-prop-1-en-1-yl]-5,6-dihydropyrido[3,2-d]pyrimidin-2-yl}amino)-N-pyridin-3-ylbenzamide], the IC50 was < 1000 nM.

In the case of `COc1cc(C(=O)NC2CCN(C)CC2)ccc1Nc1ncc2c(n1)c(-c1ccccc1)c(OCC1CC1)c(=O)n2C` [Example 51, 4-{[7-(cyclopropylmethoxy)-5-methyl-6-oxo-8-phenyl-5,6-dihydro-pyrido[3,2-d]pyrimidin-2-yl]amino}-3-methoxy-N-(1-methylpiperidin-4-yl)benzamide], the IC50 is < 10 nM.
